{
  "source": "paper doi:10.1101/2025.10.30.685166v1",
  "about": "(biorxiv, 2025)",
  "key": {"[1]": {"molecular_target": "T1, Hco-UNC-49B/Hco-UNC-49C heteromeric channel (Haemonchus contortus, UniProt D6BJF3+D6BK80)", "T1 sequence (D6BK80 22-496)": "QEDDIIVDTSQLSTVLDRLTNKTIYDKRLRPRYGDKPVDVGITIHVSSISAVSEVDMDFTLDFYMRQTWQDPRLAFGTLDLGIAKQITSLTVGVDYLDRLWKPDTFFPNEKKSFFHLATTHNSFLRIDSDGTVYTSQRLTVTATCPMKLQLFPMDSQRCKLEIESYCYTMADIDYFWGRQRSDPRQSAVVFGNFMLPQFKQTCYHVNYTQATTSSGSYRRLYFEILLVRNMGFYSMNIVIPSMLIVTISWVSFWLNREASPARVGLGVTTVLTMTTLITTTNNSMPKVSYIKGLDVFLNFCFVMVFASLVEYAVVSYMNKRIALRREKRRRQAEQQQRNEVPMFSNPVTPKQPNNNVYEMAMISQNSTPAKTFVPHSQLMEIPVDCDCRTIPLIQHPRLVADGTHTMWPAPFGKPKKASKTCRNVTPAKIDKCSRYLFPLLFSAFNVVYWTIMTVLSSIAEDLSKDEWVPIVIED", "T1 sequence (D6BJF3 22-440)": "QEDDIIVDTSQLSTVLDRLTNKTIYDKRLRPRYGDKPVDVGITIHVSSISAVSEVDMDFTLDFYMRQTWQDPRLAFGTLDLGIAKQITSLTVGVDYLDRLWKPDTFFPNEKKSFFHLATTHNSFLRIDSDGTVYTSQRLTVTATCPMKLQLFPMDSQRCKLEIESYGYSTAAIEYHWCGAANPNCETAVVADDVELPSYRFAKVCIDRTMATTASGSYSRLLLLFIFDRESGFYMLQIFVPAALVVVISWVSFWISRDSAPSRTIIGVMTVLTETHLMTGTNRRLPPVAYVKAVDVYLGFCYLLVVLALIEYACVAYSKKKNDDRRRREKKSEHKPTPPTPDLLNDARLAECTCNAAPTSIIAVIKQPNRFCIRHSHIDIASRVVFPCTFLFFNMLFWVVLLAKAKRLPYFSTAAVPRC", "assay": "cell-based"}, "[2]": {"molecular_target": "T2, Hco-UNC-49B homomeric channel (Haemonchus contortus, UniProt D6BK80)", "T2 sequence (D6BK80 22-496)": "T1 sequence (D6BK80 22-496)", "assay": "cell-based"}},
  "data": [
    {"smiles": "NCCCC(=O)O", "note": "[GABA]", "values": [
      {"measurement": "EC50", "setting": "[1]", "result": "84.9 ± 4", "unit": "µM"},
      {"measurement": "EC50", "setting": "[2]", "result": "137 ± 7", "unit": "µM"}
    ]}
  ]
}
